Here are results for ten molecules from patent US8653304B2, “2,3-dihydro-1H-indene-2-yl urea derivative and pharmaceutical application of same” (Toray Industries, Inc., priority 2009, dated 2014).

pIC50: −log10 of the molar value.

As usually defined, the pIC50 is −log10 of the IC50, conventionally taken in molar units. For orientation: AUC(0-inf) means total exposure, with the tail of the curve extrapolated. High values mean more exposure, low ones less exposure. For orientation: Cmax means the peak of the concentration-time curve.

In data set [1] the test system is TNFα production. The data set can be described thus: Cytokine production suppressing activity using human whole blood (LPS stimulation). It counts as cell-based. As to conditions: LPS 200 ng/mL, 37° C., 5 hours. How it is done:
Using human whole blood, the inhibitory action of Compound (I) on the TNFα production by LPS stimulation was studied by a method partially modified from the method described in Journal of Medicinal Chemistry (2003, Vol. 46, pp. 4676-4686).
A solution of each test compound in 100% DMSO and human blood were mixed in a 96-well flat-bottom plate. Thereafter, LPS (Final Concentration: 200 ng/mL) was added, and the resulting mixture was allowed to react at 37° C. for 5 hours (the final concentration of DMSO was 0.2%). After the reaction, the resultant was centrifuged for 20 minutes at room temperature, and the supernatant was collected. For the measurement of the TNFα amount in the supernatant, a human cytokine kit (CIS bio international) was used. As a comparative control compound, Comparative Compound 2 was used.

For data set [2], the target named is human p38 MAPK α (Homo sapiens (Human), UniProt Q16539). Description: Evaluation of p38 MAPK inhibitory activity (Alpha Screen, ATF2 phosphorylation). Type of data set: biochemical. As to conditions: p38α/SAPK2a 1.5 nM, ATP 100 μM, biotinylated ATF2 30 nM. How it is done: Using human p38 MAPK α, the p38 MAPK inhibitory activity of Compound (I) was studied by a method partially modified from the method described in Current Medicinal Chemistry (2004, No. 11, pp. 721-730).
Sequence of human p38 MAPK α (Q16539 whole entry): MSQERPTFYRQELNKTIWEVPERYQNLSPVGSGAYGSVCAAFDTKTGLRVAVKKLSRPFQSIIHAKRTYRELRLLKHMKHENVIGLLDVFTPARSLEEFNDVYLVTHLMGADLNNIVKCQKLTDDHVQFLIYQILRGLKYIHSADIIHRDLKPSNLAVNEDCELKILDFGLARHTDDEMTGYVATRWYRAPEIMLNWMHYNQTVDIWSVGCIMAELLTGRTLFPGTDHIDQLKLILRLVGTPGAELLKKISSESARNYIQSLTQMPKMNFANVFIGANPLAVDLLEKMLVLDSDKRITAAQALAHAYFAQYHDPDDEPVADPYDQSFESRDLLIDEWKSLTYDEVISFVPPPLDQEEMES
A solution of each test compound solution in 100% DMSO and a p38α/SAPK2a solution (Final Concentration: 1.5 nM) (Invitrogen) were added to a 384-well plate, and then the plate was incubated at room temperature in a dark place for 1 hour. Thereafter, ATP (Final Concentration: 100 μM), which is a phosphate donor, and biotinylated ATF2 (Final Concentration: 30 nM) (upstate), which is a substrate, were added, and the resulting mixture was allowed to react at room temperature in a dark place for 1 hour (the final concentration of DMSO was 0.25%). After the reaction, an anti-phosphorylated ATF2 antibody (Final Concentration: 1 nM) (Cell Signaling), anti-IgG acceptor beads (Final Concentration: 20 μg/mL) (PerkinElmer) and streptavidin donor beads (Final Concentration: 20 μg/mL) (PerkinElmer) were added, and the resultant was incubated at room temperature in a dark place for 1 hour. Using a microplate analyzer (Fusion-α, Packard) in Alpha Screen method (Amplified Luminescent Proximity Homogeneous Assay), the light emission was detected. The IC50 value of each compound was calculated by sigmoidal dose-response regression using Prism 4.02 (GraphPad Software, Inc.).

The nature of data set [3]: Pharmacokinetic evaluation in mouse (oral). It counts as in vivo. As to conditions: male; BALB/c mouse, oral 0.8 mg/kg, plasma. How it is done:
Each test compound was dissolved in 10% HP-β-CD (Nihon Shokuhin Kako Co., Ltd.) to prepare a solution to be administered (0.08 mg/mL, as a solution to be administered for oral administration). To each BALB/c mouse (male, 7-week old, Charles River Laboratories Japan, Inc.), each compound was orally administered at a dose of 0.8 mg/kg. Blood was collected from the jugular vein or heart with time up to 24 hours after the administration. The obtained blood was centrifuged to collect blood plasma. The blood plasma was pretreated by methanol extraction method, and the concentration of the compound was analyzed by LC/MS/MS (ESI positive mode).
In this table, Cmax represents a maximum plasma concentration; and AUC0-∞ represents an area under the curve of the plasma concentration of the compound from after the compound administration to infinite time.

Data set [4] concerns ICR mouse. The data set can be described thus: Evaluation of hepatotoxicity in mouse (plasma AST). Type of data set: in vivo. The following applies: oral 500 mg/kg, plasma on the day after administration. How it is done:
Compound (I) was suspended in 0.5% methylcellulose (Wako Pure Chemical Industries, Ltd.) to prepare a 50 mg/mL solution to be administered. To each ICR mouse (male, 7-week old, Charles River Laboratories Japan, Inc.), each compound was orally administered at a dose of 500 mg/kg. On the day after the administration, blood was collected from the posterior vena cava, and the obtained blood was centrifuged to collect blood plasma. AST (aspartate aminotransferase) value, which is a marker of hepatic disorders in blood plasma, was measured with a biochemistry automatic analyzer (Hitachi 7070, Hitachi, Ltd.). Comparative Compound 4 was suspended in 0.5% sodium carboxymethylcellulose (Wako Pure Chemical Industries, Ltd.) before use.

As for `COc1cccc2c1C[C@@H](NC(=O)Nc1cc(C(C)(C)C)cc([C@H](O)C(F)(F)F)c1OC)[C@H]2O` (single isomer, unassigned) [Compound 52b], the negative-log IC50 (pIC50) in data set [1] is 6.96; in data set [2], 7.62.

Take `COc1c(NC(=O)N[C@@H]2Cc3c(F)cccc3[C@@H]2O)cc(N2CCOCC2)cc1[C@H](O)C(F)(F)F` (single isomer, unassigned) [Compound 84b]: the negative logarithm of the IC50 (pIC50) in data set [1] was 6.94; in data set [2], 7.80.

`CCC(C)(C)c1cc(NC(=O)N[C@@H]2Cc3ccccc3[C@@H]2O)c(OC)c([C@H](O)C(F)(F)F)c1` (single isomer, unassigned) [Compound 123b] gave a pIC50 in data set [2] of 7.54.

The molecule `COc1c(NC(=O)NC2Cc3ccccc3C2)cc(C(C)(C)C)cc1C(O)C(F)(F)F` (stereo not drawn) [Comparative Compound 1, 1-(5-tert-butyl-2-methoxy-3-(2,2,2-trifluoro-1-hydroxyethyl)phenyl)-3-(2,3-dihydro-1H-indene-2-yl)urea, reference compound] showed a negative-log IC50 (pIC50) in data set [2] of 6.93. This pIC50 lies 0.61 log units lower than the previous one.

For `COc1c(CO)cc(C(C)(C)C)cc1NC(=O)NC1Cc2ccccc2C1` [Comparative Compound 2, 1-(5-tert-butyl-3-(hydroxymethyl)-2-methoxyphenyl)-3-(2,3-dihydro-1H-indene-2-yl)urea], in data set [3], the AUC(0-inf) amounted to 116 ng·h/mL and the Cmax was 79.7 ng/mL. Moreover, the negative logarithm of the IC50 (pIC50) in data set [1] was 5.28.

`Cc1ccc(-n2nc(C(C)(C)C)cc2NC(=O)Nc2ccc(OCCN3CCOCC3)c3ccccc23)cc1` [Comparative Compound 4, 1-(3-tert-butyl-1-p-tolyl-1H-pyrazol-5-yl)-3-(4-(2-morpholinoethoxy)naphthalen-1-yl)urea, reference compound]: in data set [4], the AST value is listed as 145 U/L.

In data set [3], `C[S+]([O-])c1ccc(-c2nc(-c3ccncc3)c(-c3ccc(F)cc3)[nH]2)cc1` (stereo not drawn) [Comparative Compound 5, 4-(4-(4-fluorophenyl)-2-(4-(methylsulfinyl)phenyl)-1H-imidazol-5-yl)pyridine] registered an AUC(0-inf) of 59.8 ng·h/mL and a Cmax of 11.4 ng/mL.

Take `COc1c(CO)cc(C(C)(C)C)cc1NC(=O)N[C@@H]1Cc2c(F)cccc2[C@@H]1O` [Compound 3, 1-(5-tert-butyl-3-(hydroxymethyl)-2-methoxyphenyl)-3-((1S,2R)-4-fluoro-1-hydroxy-2,3-dihydro-1H-indene-2-yl)urea]: the negative-log IC50 (pIC50) in data set [1] is 6.63.

Molecule `COc1c(NC(=O)N[C@@H]2Cc3ccccc3[C@@H]2O)cc(C(C)(C)C)cc1C(N)C(F)(F)F` (stereo partly drawn) [Compound 47b, 1-(3-(1-amino-2,2,2-trifluoroethyl)-5-tert-butyl-2-methoxyphenyl)-3-((1S,2R)-1-hydroxy-2,3-dihydro-1H-indene-2-yl)urea] had a pIC50 in data set [2] of 7.74.

`COc1c(NC(=O)N[C@H]2Cc3ccc(F)cc3[C@H]2O)cc(C(C)(C)C)cc1[C@@H](O)C(F)(F)F` [Compound 60b, 1-(5-tert-butyl-2-methoxy-3-((R)-2,2,2-trifluoro-1-hydroxyethyl)phenyl)-3-(cis-6-fluoro-1-hydroxy-2,3-dihydro-1H-indene-2-yl)urea]: the pIC50 in data set [1] was 6.74.
